The source of these data is patent publication US11850254B2, “Tryptamine compositions for enhancing neurite outgrowth” (TURTLE BEAR HOLDINGS, LLC, priority 2019, dated 2023).

One assay has as its system human U87 cells. The following applies: Zhang et al. 2020; cited from earlier work.
In assay [1] the test system is PC12 cells treated with conditioned media from 1321N1 human astrocytoma cells. Put plainly: Neurite outgrowth of PC12 cells treated with conditioned media from 1321N1 cells. The format is cell-based, rat. The conditions noted are these: conditioned media from treated 1321N1 cells; FIG. 11, n=3. The source says:
Although the assay aimed to explore potential synergistic effects of combining HE and psilocybin analogs, this was not clearly observed. […] 1321N1 human brain astrocytoma cells are known to excrete neurologically beneficial compounds when stimulated with neurotrophic compounds and fungal extracts including lion's mane (Mori et al., Biological and Pharmaceutical Bulletin, 9: 1727-1732 (2008)). While some fungi have well established mechanisms by which they benefit neurological health, little is known about the role of psilocybin analogs specifically. Generally following the protocol of Mori et al., 2008, 1321N1 human astrocytoma cells were treated with psilocybin analogs, and conditioned media was collected and applied to differentiated rat pheochromocytoma PC12 cells to determine the resulting impact on neurite outgrowth.

Assay [2] deals with nerve growth factor (NGF) protein in human 1321N1 brain cells. The assay can be described thus: ELISA of NGF protein in 1321N1 cells. The format is cell-based. The conditions noted are these: compared to a vehicle control; n=3; p<0.05. An excerpt: Accordingly, preliminary research has started to reveal the mechanisms by which psilocybin analogs may confer neurotrophic benefits that facilitate neurite outgrowth.
(§1) See Ly et al., “Psychedelics Promote Structural and Functional Neural Plasticity,” Cell Rep.
(In general: An ELISA detects its analyte on a solid surface through an enzyme-linked reagent.)

The subject of another assay is neurogenesis. The conditions noted are these: Ly et al. 2018; cited from earlier work.
The next assay has as its system humans. The following applies: cited from earlier work.
The target in a further assay is 5-HT2A receptor (Homo sapiens, UniProt P28223). The following applies: cited from earlier work.
5-HT2A receptor, sequence (P28223 whole entry): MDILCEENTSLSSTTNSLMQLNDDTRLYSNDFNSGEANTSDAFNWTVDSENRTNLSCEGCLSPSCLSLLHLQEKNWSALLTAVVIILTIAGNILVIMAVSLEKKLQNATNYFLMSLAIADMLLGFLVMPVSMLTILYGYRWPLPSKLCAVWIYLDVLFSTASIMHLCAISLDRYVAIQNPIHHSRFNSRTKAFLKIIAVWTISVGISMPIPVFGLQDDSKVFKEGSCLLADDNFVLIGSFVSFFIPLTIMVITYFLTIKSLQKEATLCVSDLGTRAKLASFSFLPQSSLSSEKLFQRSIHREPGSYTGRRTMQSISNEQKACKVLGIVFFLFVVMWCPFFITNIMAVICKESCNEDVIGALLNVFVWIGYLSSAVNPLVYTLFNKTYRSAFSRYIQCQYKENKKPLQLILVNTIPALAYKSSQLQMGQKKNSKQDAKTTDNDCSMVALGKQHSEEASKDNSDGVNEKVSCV
In assay [3] the test system is anti-inflammatory cytokine IL-10 in human 1321N1 brain cells. The assay can be described thus: ELISA of IL-10 in 1321N1 cells. The format is cell-based.
Excerpt: as §1

The test system of assay [4] is cortical neurons from rat embryo. Put plainly: Neurite outgrowth and length in cultured neurons (Neurofit), tubulin immunostaining, High-Content Screening. The following applies: versus vehicle control, at the concentrations tested.

“Also recorded” adds a separate entry of the source. Where two headings read alike, the source gives them in different places.

With `CC(=O)O[C@@H]1C[C@@H]2C3=C(C(C)C)CC[C@]3(C)CC[C@@]2(C)[C@@H](O[C@@H]2OC[C@@H](O)[C@H](O)[C@H]2O)C=C1C=O` [P], in the assay on human U87 cells, the inhibition of gliomas result is reported as “inhibitors of gliomas”. As to `NCCc1c[nH]c2cccc(OP(=O)(O)O)c12` [norbaeocystin, 4-phosphoryloxy-tryptamine], in assay [1], the “neurite outgrowth in PC12 cells” value was “induce neurite outgrowth”. Also, the “expression of NGF protein” value in assay [2] is on record as “increased expression of NGF protein; also recorded: induces the expression; also recorded: induction of NGF protein”. Consider `COc1cc(CC(C)N)c(OC)cc1I` (centres unmarked) [DOI, 2,5-dimethoxy-4-iodoamphetamine], for which, in the assay on neurogenesis, the neurogenesis result is recorded as “promoted neurogenesis”. On to `CNCCc1c[nH]c2cccc(OP(=O)(O)O)c12` [baeocystin, 4-phosphoryloxy-N-methyltryptamine], for which the “neurite outgrowth in PC12 cells” value in assay [1] is given as “induce neurite outgrowth”. Besides, the hallucinogenic effect entry in the assay on humans (4 mg consumed, Gartz 1991) is “gentle hallucinogenic experience”; in the assay on humans (oral consumption of 10 mg and 20 mg) it was “did not produce any hallucinogenic effects”. For the same molecule, the “potency and psychotropic effects” value in the assay with humans (Gartz 1997) is on record as “roughly akin to psilocybin”.

`COc1cc(C[C@@H](C)N)c(OC)cc1I` [(R)-2,5-dimethoxy-4-iodoamphetamine]: on 5-HT2A receptor, the 5-HT2A receptor activation result was “activate the 5-HT2A receptor”. Consider `CCN(CC)C(=O)[C@@H]1C=C2c3cccc4[nH]cc(c34)C[C@H]2N(C)C1` [LSD, N,N-diethyl-D-lysergamide], for which the neurogenesis result with neurogenesis is given as “promoted neurogenesis”. Regarding `CN(C)CCc1c[nH]c2ccccc12` [dimethyltryptamine, N,N-dimethyltryptamine], the neurogenesis entry with neurogenesis was “promoted neurogenesis”. Take `CNCCc1c[nH]c2cccc(O)c12` [norpsilocin, 4-hydroxy-N-methyl-tryptamine]: the “expression of the anti-inflammatory cytokine IL-10” value in assay [3] was “induces the expression”. In assay [1], the “neurite outgrowth in PC12 cells” value was “induce neurite outgrowth”. In addition, the “neurite outgrowth, in words” value in assay [4] is “did not perform better than vehicle control”.
